Laboratory results published in ChEMBL document CHEMBL1132009, “Inhibition of MMP-1 and MMP-13 with phosphinic acids that exploit binding in the S2 pocket” (Bioorg Med Chem Lett, 1999).

Key:
[1] = target: Stromelysin-1 (Homo sapiens, UniProt P08254); test: Inhibition of recombinant matrix metalloprotease-3 (MMP-3)
[2] = Selectivity ratio for MMP-2 over MMP-3
[3] = target: 72 kDa type IV collagenase (Homo sapiens, UniProt P08253); test: Inhibition of recombinant matrix metalloprotease-2 (MMP-2)
[4] = target: T1, Interstitial collagenase (Homo sapiens, UniProt P03956); test: Inhibitory activity against recombinant matrix metalloprotease-1 (MMP-1).
T1 sequence (P03956 whole entry): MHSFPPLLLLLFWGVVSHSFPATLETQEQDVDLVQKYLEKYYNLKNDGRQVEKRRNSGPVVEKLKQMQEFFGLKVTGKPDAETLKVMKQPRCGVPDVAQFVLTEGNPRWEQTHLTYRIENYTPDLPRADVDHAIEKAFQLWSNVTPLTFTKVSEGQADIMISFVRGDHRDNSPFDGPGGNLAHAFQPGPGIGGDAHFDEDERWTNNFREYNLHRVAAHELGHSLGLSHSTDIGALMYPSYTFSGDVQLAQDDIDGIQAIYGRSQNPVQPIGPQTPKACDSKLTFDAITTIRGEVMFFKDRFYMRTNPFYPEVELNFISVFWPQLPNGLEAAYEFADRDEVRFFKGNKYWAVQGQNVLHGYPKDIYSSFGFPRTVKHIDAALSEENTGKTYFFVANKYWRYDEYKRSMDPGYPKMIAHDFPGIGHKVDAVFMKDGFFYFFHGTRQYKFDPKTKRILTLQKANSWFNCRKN

[5] = target: Collagenase 3 (Homo sapiens, UniProt P45452); test: Inhibition of recombinant Matrix metalloprotease-13 (MMP-13)
[6] = Terminal half-life after iv administration to rats; assay type: ADME, organism-based; details: rat, in vivo
[7] = Steady state volume of distribution after iv administration to rats; assay type: ADME, organism-based; details: rat, in vivo
[8] = Clearance after iv administration to rats; assay type: ADME, organism-based; details: rat, in vivo

Sequence of Stromelysin-1 (P08254 whole entry): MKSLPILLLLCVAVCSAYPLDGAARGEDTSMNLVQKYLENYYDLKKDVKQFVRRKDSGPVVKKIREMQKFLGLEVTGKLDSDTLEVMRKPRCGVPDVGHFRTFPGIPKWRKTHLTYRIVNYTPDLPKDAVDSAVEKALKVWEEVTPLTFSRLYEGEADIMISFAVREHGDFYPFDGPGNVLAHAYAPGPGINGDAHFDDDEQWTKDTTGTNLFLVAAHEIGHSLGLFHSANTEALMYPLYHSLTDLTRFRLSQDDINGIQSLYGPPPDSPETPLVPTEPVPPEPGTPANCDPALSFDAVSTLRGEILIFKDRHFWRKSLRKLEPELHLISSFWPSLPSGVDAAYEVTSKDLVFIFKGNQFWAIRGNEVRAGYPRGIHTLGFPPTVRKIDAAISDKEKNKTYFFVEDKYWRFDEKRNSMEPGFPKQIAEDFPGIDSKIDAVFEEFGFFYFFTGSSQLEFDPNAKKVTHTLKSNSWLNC
Sequence of 72 kDa type IV collagenase (P08253 whole entry): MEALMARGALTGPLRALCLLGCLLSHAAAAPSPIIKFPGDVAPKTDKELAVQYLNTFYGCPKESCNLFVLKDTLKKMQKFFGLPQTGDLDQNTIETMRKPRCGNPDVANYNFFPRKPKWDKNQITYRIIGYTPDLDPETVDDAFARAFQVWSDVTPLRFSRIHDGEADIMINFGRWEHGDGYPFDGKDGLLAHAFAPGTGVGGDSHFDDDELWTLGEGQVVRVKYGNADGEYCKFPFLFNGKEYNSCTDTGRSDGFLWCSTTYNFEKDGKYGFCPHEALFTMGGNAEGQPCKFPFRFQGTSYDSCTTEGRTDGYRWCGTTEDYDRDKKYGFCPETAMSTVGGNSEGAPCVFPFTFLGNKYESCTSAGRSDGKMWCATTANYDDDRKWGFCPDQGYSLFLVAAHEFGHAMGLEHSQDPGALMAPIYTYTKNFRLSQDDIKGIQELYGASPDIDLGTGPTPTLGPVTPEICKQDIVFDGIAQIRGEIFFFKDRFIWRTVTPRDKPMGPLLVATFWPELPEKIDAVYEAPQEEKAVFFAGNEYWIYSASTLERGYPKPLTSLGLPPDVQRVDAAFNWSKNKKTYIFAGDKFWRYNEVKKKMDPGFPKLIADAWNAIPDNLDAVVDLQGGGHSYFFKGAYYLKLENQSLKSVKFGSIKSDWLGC

Compound	IC50 [4]	IC50 [5]	other results
CC(=O)N1CCC[C@H]1C(=O)NCCCCP(=O)(O)C[C@@H](CCc1ccccc1)C(=O)N[C@H](CC(C)C)C(=O)Nc1ccccc1			Ki [1]: 62 nM; Selectivity [2]: 10; Ki [3]: 6.1 nM
CNC(=O)[C@@H](Cc1ccc(OC)cc1)NC(=O)C(CC(C)C)CP(=O)(O)Cc1ccc(C(=O)NCc2ccccc2)cc1 (some centres undefined)	2100 nM		
CNC(=O)[C@H](NC(=O)C(CCC(C)C)CP(=O)(O)Cc1ccc(Cc2ccccc2)cc1)C(C)(C)C (some centres undefined)	3500 nM	> 3000 nM	
CNC(=O)[C@H](NC(=O)C(CCCCOc1ccccc1)CP(=O)(O)Cc1ccc(Cc2ccccc2)cc1)C(C)(C)C (some centres undefined)	> 30000 nM	30 nM	
CNC(=O)[C@H](NC(=O)C(CC(C)C)CP(=O)(O)Cc1ccc(C(=O)c2ccccc2)cc1)C(C)(C)C (some centres undefined)	750 nM		
CNC(=O)[C@H](NC(=O)C(CCC(F)(F)F)CP(=O)(O)Cc1ccc(Cc2ccccc2)cc1)C(C)(C)C (some centres undefined)	45 nM	1600 nM	
CNC(=O)[C@H](NC(=O)C(CC1CCC1)CP(=O)(O)Cc1ccc(Cc2ccccc2)cc1)C(C)(C)C (some centres undefined)	180 nM	110 nM	
CNC(=O)[C@H](NC(=O)C(CC1CC1)CP(=O)(O)Cc1ccc(Cc2ccccc2)cc1)C(C)(C)C (some centres undefined)	200 nM	1100 nM	
CC(C)CC(CP(=O)(O)Cc1ccc(Cc2ccccc2)cc1)C(=O)NC(CO)C(C)(C)C (centres undefined)	18000 nM		
CNC(=O)[C@H](NC(=O)C(CCC1CCCCC1)CP(=O)(O)Cc1ccc(Cc2ccccc2)cc1)C(C)(C)C (some centres undefined)	19000 nM	2000 nM	
CNC(=O)[C@H](NC(=O)C(CCc1ccccc1)CP(=O)(O)Cc1ccc(Cc2ccccc2)cc1)C(C)(C)C (some centres undefined)	690 nM	14 nM	half-life [6]: 138 min; Vd [7]: 0.2 L/kg; IC50 [1]: 1200 nM; clearance [8]: 12 mL/min/kg
CNC(=O)[C@H](NC(=O)C(CC1CCCCC1)CP(=O)(O)Cc1ccc(Cc2ccccc2)cc1)C(C)(C)C (some centres undefined)	1800 nM	1600 nM	
CNC(=O)[C@H](NC(=O)C(CC(C)C)CP(=O)(O)Cc1ccc(Cc2ccccc2)cc1)C(C)(C)C (some centres undefined)	60 nM	180 nM	
CNC(=O)[C@@H](C)NC(=O)C(CC(C)C)CP(=O)(O)Cc1ccc(Cc2ccccc2)cc1 (some centres undefined)	2300 nM		
CC(C)C[C@@H](NC(=O)[C@H](CCc1ccccc1)CP(=O)(O)CCCCN1C(=O)c2ccccc2C1=O)C(=O)Nc1ccccc1			Ki [3]: 20 nM
CC(C)CC(CP(=O)(O)Cc1ccc(Cc2ccccc2)cc1)C(=O)NCC(C)(C)C (centres undefined)	20000 nM		
CNC(=O)[C@H](NC(=O)C(CCc1ccccc1)CP(=O)(O)Cc1ccccc1)C(C)(C)C (some centres undefined)	22000 nM	300 nM	IC50 [1]: 2700 nM
